What was measured:
[1] = molecular target: human glutaminyl cyclase (hQC) (Homo sapiens, UniProt Q16769); assay: hQC inhibition, fluorometric assay with fluorogenic substrate Glu-AMC and pGAPase
Description: The synthesized compounds were evaluated for hQC inhibition by a fluorometric assay with a fluorogenic substrate, Glu-AMC·HBr (L-glutamine 7-amido-4-methylcoumarin, BACHEM, Switzerland), and an auxiliary enzyme, pyroglutamyl peptidase (pGAPase, 50 units, Qiagen, Germany), as our previously reported.[29] The used buffer consisted of 25 mM HEPES (Sigma), with pH 7.0, adjusted with HCl. […] After incubation in 96-well black plates (Greiner, Austria) for 10 min at 37 °C, the reaction was started by adding 50 μL of hQC solution (0.04 μg mL^−1). The excitation/emission wavelengths at 380/460 nm were correlated with the amount of ACM, the last product of the enzymatic process.

[2] = design: method as in PMID 26101580; conditions: cited from earlier work
human QC = conditions: ref bindingdb.org, cited from earlier work
[3] = IC50 for inhibition of the hQC enzyme, Table 1, HEPES pH 7.0, 37 °C
[4] = Table 2, from IC50 assumed equal to the inhibition constant ki
[5] = supplement Table S1, compounds 1_x and 3_x

Chain of human glutaminyl cyclase (hQC) (Q16769 29-361): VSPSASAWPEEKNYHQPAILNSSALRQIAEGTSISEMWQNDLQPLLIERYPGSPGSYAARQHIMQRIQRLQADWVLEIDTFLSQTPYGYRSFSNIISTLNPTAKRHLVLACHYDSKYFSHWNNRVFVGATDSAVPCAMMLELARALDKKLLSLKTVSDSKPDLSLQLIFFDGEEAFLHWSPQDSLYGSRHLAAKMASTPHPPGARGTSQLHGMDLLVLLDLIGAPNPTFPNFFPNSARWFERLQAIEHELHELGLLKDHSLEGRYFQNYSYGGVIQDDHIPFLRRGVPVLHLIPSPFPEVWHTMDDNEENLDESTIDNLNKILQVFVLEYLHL

IC50 ([1]; IC50, supplement Table S3) [nM] | IC50 [1, 3] [nM] | ΔGEXP [1, 4] [kcal/mol] | ΔGEXP [1, 5] [kcal/mol] | more potent than 1_1 ([1]; ratio of IC50 values) [folds] | SMILES | permeation of the BBB [2] | ΔGEXP (human QC; supplement Table S1, ligands 1-12) [kcal/mol] | Ki (human QC; supplement Table S3) [nM]
420 | 420 ± 60 | -8.75 | -8.69 | – | COc1ccc(Nc2nnc(CCn3cncc3C)o2)cc1OC [Compound 1_4] | – | – | –
637 | 640 ± 90 | -8.50 | -8.45 | – | COC(=O)C(C)NC(=O)C(Cc1ccccc1)NCCCn1cncc1C (stereo not shown) [Compound 3_1] | – | – | –
– | – | – | – | – | COc1cc(NC(=S)NCCCn2ccnc2)ccc1O[11CH3] [[^11C]PBD150] | impossible permeation the BBB | – | –
316 | 320 ± 100 | -8.92 | – | – | COc1ccc(Nc2nc(CCn3cncc3C)cs2)cc1OC [Compound 1_3] | – | – | –
107 | 110 ± 30 | -9.57 | – | 2 | COc1cc2nc(NCCCn3cncc3C)[nH]c2cc1OC [Compound 1_2, 5,6-dimethoxy-N-(3-(5-methyl-1H-imidazol-1-yl)propyl)-1H-benzo[d]imidazol-2-amine] | – | – | –
446 | 450 ± 40 | -8.68 | -8.59 | – | Cc1cncn1CCCNC(Cc1ccccc1)C(=O)NC(C)C(N)=O (stereo not shown) [Compound 3_3] | – | – | –
305 | 300 ± 90 | -8.94 | – | – | COc1cc2nc(NCCCn3cncc3C)sc2cc1OC [Compound 1_1] | – | – | –
– | – | – | – | – | c1ccc(Cn2ccnc2)cc1 [Compound 77918] | – | -9.03 | 262
